Source: patent US10167293B2, “[8-(phenylsulfonyl)-3,8-diazabicyclo[3.2.1]oct-3-yl](1H-1,2,3-triazol-4-yl)methanones” (BAYER PHARMA AKTIENGESELLSCHAFT, priority 2016, dated 2019)
pIC50: −log10 of the molar value.

Tests used:
[1] = molecular target: recombinant human AKR1C3 (Homo sapiens (Human), UniProt P42330); assay: AKR1C3-inhibitory activity assay (Coumberone to Coumberol fluorescence); format: biochemical; conditions: recombinant human AKR1C3, 15 min pre-incubation, 10 μM NADPH, 0.3 μM Coumberone
Chain of recombinant human AKR1C3 (P42330 whole entry): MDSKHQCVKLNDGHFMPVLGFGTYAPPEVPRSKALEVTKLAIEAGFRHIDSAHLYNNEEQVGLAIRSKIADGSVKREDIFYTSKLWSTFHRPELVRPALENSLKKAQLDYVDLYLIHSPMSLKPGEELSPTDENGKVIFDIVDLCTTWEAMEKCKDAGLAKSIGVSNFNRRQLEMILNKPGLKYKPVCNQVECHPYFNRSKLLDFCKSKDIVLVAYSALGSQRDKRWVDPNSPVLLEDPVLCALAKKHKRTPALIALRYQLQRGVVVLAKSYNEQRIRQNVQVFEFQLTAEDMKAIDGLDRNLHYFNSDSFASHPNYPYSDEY
Description: The AKR1C3-inhibitory activity of the substances of the present invention was measured in the AKR1C3 assay described in the paragraphs below.
Essentially, the enzyme activity is measured by quantification of the generation of Coumberol from Coumberone (Halim et al. J. AM. CHEM. SOC. 2008, 130:14123-14128 and Yee et al. Proc. Natl. Acad. Sci. USA 2006, 103:13304-13309). In this test, the increase of the highly fluorescent Coumberol by NADPH—(nicotinamide adenine dinucleotide phosphate)-dependent reduction of the non-fluorescent Coumberone by AKR1C3 was determined.
The enzyme used was recombinant human AKR1C3 (Aldo-keto reductase family 1 member C3; GenBank Accession No. NM_003739). This was expressed in E. coli as GST (glutathione S transferase) fusion protein and purified by glutathione Sepharose affinity chromatography. The GST was removed by digestion with thrombin and subsequent size exclusion chromatography (Dufort, I., Rheault, P., Huang, X F., Soucy, P., and Luu-The, V., Endocrinology 140, 568-574 (1999)).
For the assay, 50 nl of a 100-fold concentrated solution of the test substance in DMSO were pipetted into a black low-volume 384-well microtiter plate (Greiner Bio-One, Frickenhausen, Germany), 2.5 μl of a solution of AKR1C3 in assay buffer [50 mM potassium phosphate buffer pH 7, 1 mM DTT, 0.0022% (w/v) Pluronic F-127, 0.01% BSA (w/v) and protease inhibitor cocktail (Complete, EDTA-free Protease Inhibitor Cocktail from Roche)] were added and the mixture was incubated for 15 min to allow pre-binding of the substances to the enzyme prior to the enzyme reaction. The enzyme reaction was then started by addition of 2.5 μl of a solution of NADPH (20 μM→final concentration in 5 μl of assay volume is 10 μM) and Coumberone (0.6 μM→final concentration in 5 μl of assay volume is 0.3 μM) in assay buffer, and the resulting mixture was incubated at 22° C. for the reaction time of typically 90 min. The concentration of the AKR1C3 and the reaction time was adapted to the respective activity of the enzyme preparation and adjusted such that the assay was carried out in the linear range. Typical AKR1C3 concentrations were in the region of 1 nM. The reaction was stopped by addition of 2.5 μl of a stop solution consisting of 3 μM EM-1404 as inhibitor (U.S. Pat. No. 6,541,463) in 50 mM HEPES pH7.5 (3 μM EM-1404→final concentration in 7.5 μl of assay volume is 1 μM). The fluorescence of the Coumberole was then measured at 520 nm (excitation at 380 nm) using a suitable measuring instrument (Pherastar from BMG Labtechnologies). The intensity of the fluorescence was used as a measure of the amount of Coumberole formed and thus of the enzyme activity of AKR1C3. The data were normalized (enzyme reaction without inhibitor=0% inhibition; all other assay components, but no enzyme=100% inhibition).

[2] = system: human primary adipocytes; assay: Inhibition of testosterone formation from androstenedione in human primary adipocytes; format: cell-based; conditions: 1 μM androstenedione, 1 μM or 10 μM compound, 48 h, donors with BMI 26 and 30
Description: Cat# SA-1012-3 12 well Platte). Adipocytes were incubated in Adipocyte Basal Medium (Fa. ZenBio, Cat# BM-1)+1% FCS+2.5 μg/ml Amphotericin B (Fa. […] Androstenedione served as a substrate for the formation into testosterone. After the incubation adipocytes were collected and testosterone and androstenedione concentrations were determined by LC/MS at the “Bioanalytical Service and research provider Pharm-Analyt”. Inhibition of the conversion of androstenedione to testosterone by compound 76 is determined as Testosterone/Androstenedione ratio [%]. […] FIG. 1: […] The testosterone/androstenedione ratio [%] is shown.

[3] = system: endometriotic lesions; assay: Callithrix jacchus endometriosis model; format: in vivo; conditions: 5 mg/kg orally once per day, 6 weeks
Description: The in vivo efficacy of compound 76 was tested in a non-human primate endometriosis model in marmoset monkeys.
Marmoset monkeys (Callithrix jacchus) are non-menstruating species in which endometriosis was induced by injection of endometrial tissue into the peritoneal cavity (Einspanier, Lieder et al, 2006). 6-12 year old female common marmosets with established endometriosis were employed (body weight between 358 g and 520 g) and distributed into 2 groups, with a size of n=5 animals per group. Prior to the actual start of the treatment, the animals were subjected to a laparotomy and examined for the presence of endometriotic lesions on the bladder, the uterus and the ovaries to measure each lesion's area. The randomization of animals into the two treatment groups was performed with respect to the initial lesion status at the first laparotomy. The endometriosis severity based on total lesion area per animal was distributed similarly across the groups.
For both the treatment group (5 mg/kg of compound 76) and vehicle treated group, the sum of total lesion area/size [cm^2] per animal, with respect to lesion area and lesion number, was determined and defined as pre-treatment status. 6 weeks later the treatment was started. The test compounds were administered orally once per day in capsules (PC Caps® capsules, Capsugel). To adapt for the intended dose, a trituration of the active compound with lactose was prepared and the exact dose was filled into the individual capsules. Each capsule was separately coated with salvia resistant coating (Eudragit EPO; Evonik). After the end of a 6 weeks treatment period, a second laparotomy was carried out and the number and size of the lesions on uterus, ovaries and bladder was determined with respect to total lesion size/area and defined as post-treatment status.

Structure (SMILES)	pIC50 [1]	other results
Cc1ccc(Cl)cc1S(=O)(=O)N1C2CCC1CN(C(=O)c1cnn[nH]1)C2 [Example 63, {8-[(5-chloro-2-methylphenyl)sulfonyl]-3,8-diazabicyclo[3.2.1]oct-3-yl}(1H-1,2,3-triazol-5-yl)methanone]	8.77	–
COc1ccccc1S(=O)(=O)N1C2CCC1CN(C(=O)c1cnn[nH]1)C2 [Example 64, {8-[(2-methoxyphenyl)sulfonyl]-3,8-diazabicyclo[3.2.1]oct-3-yl}(1H-1,2,3-triazol-5-yl)methanone]	8.89	–
Cc1ccc(Br)cc1S(=O)(=O)N1C2CCC1CN(C(=O)c1cnn[nH]1)C2 [Example 65, {8-[(5-bromo-2-methylphenyl)sulfonyl]-3,8-diazabicyclo[3.2.1]oct-3-yl}(1H-1,2,3-triazol-5-yl)methanone]	9.30	–
O=C(c1cnn[nH]1)N1CC2CCC(C1)N2S(=O)(=O)c1ccc2c(c1)OCO2 [Example 66, [8-(1,3-benzodioxol-5-ylsulfonyl)-3,8-diazabicyclo[3.2.1]oct-3-yl](1H-1,2,3-triazol-5-yl)methanone]	9.05	–
COc1cc(C)ccc1S(=O)(=O)N1C2CCC1CN(C(=O)c1cnn[nH]1)C2 [Example 67, {8-[(2-methoxy-4-methylphenyl)sulfonyl]-3,8-diazabicyclo[3.2.1]oct-3-yl}(1H-1,2,3-triazol-5-yl)methanone]	9.00	–
N#Cc1c(Cl)cccc1S(=O)(=O)N1C2CCC1CN(C(=O)c1cnn[nH]1)C2 [Example 68, 2-chloro-6-{[3-(1H-1,2,3-triazol-5-ylcarbonyl)-3,8-diazabicyclo[3.2.1]oct-8-yl]sulfonyl}benzonitrile]	8.89	–
O=C(c1cnn[nH]1)N1CC2CCC(C1)N2S(=O)(=O)c1cccc2c1OCC2 [Example 69, [8-(2,3-dihydro-1-benzofuran-7-ylsulfonyl)-3,8-diazabicyclo[3.2.1]oct-3-yl](1H-1,2,3-triazol-5-yl)methanone]	9.22	–
O=C(c1cnn[nH]1)N1CC2CCC(C1)N2S(=O)(=O)c1cc(F)ccc1Cl [Example 70, {8-[(2-chloro-5-fluorophenyl)sulfonyl]-3,8-diazabicyclo[3.2.1]oct-3-yl}(1H-1,2,3-triazol-5-yl)methanone]	9.30	–
O=C(c1cnn[nH]1)N1CC2CCC(C1)N2S(=O)(=O)c1cccc(F)c1Cl [Example 71, {8-[(2-chloro-3-fluorophenyl)sulfonyl]-3,8-diazabicyclo[3.2.1]oct-3-yl}(1H-1,2,3-triazol-5-yl)methanone]	9.10	–
COc1cc(F)ccc1S(=O)(=O)N1C2CCC1CN(C(=O)c1cnn[nH]1)C2 [Example 72, {8-[(4-fluoro-2-methoxyphenyl)sulfonyl]-3,8-diazabicyclo[3.2.1]oct-3-yl}(1H-1,2,3-triazol-5-yl)methanone]	8.96	–
COc1ccc(C#N)cc1S(=O)(=O)N1C2CCC1CN(C(=O)c1cnn[nH]1)C2 [Example 73, 4-methoxy-3-{[3-(1H-1,2,3-triazol-5-ylcarbonyl)-3,8-diazabicyclo[3.2.1]oct-8-yl]sulfonyl}benzonitrile]	7.55	–
N#Cc1ccc(Cl)c(S(=O)(=O)N2C3CCC2CN(C(=O)c2cnn[nH]2)C3)c1 [Example 74, 4-chloro-3-{[3-(1H-1,2,3-triazol-5-ylcarbonyl)-3,8-diazabicyclo[3.2.1]oct-8-yl]sulfonyl}benzonitrile]	8.26	–
O=C(c1cnn[nH]1)N1CC2CCC(C1)N2S(=O)(=O)c1cc(F)cc(F)c1 [Example 75, sodium 5-({8-[(3,5-difluorophenyl)sulfonyl]-3,8-diazabicyclo[3.2.1]oct-3-yl}carbonyl)-1,2,3-triazol-1-ide]	9.15	–
O=C(c1cnn[n-]1)N1CC2CCC(C1)N2S(=O)(=O)c1cccc(F)c1.[Na+] [Example 76, sodium 5-({8-[(3-fluorophenyl)sulfonyl]-3,8-diazabicyclo[3.2.1]oct-3-yl}carbonyl)-1,2,3-triazol-1-ide]	8.96	formation of testosterone from androstenedione (Testosterone/Androstenedione ratio) [2]: inhibited; mean reduction of the total lesion size compared to baseline ([3]; n=5): 68.9%; ratio of total lesion size/area post- versus pre-treatment ([3]; all treated animals): below 1; total lesion size post-treatment versus pre-treatment ([3]; marmosets with established endometriosis): strongly reduced
